# In patent publication US20230406825A1, “COMPOUNDS, COMPOSITIONS THEREOF, AND METHODS FOR TREATING ER+ BREAST CANCER” (The Board of Regents of The University of Texas System, priority 2020, published 2023):
# Entries after “also recorded” stand apart in the source; their conditions may differ.
# How the values were obtained:
# [1] = test system: ER+ breast cancer cell lines (MCF-7, ZR-75 and T-47D); test: Cell Titer-Glo dose dependent viability assay, ER+ breast cancer cell lines; assay type: cell-based
# Method: (§1) To measure the effects of TC-E 5008 on cell viability, breast cancer cells were seeded in 96-well plates (4×10^3 cells/well) in RPMI medium containing 10% fetal bovine serum. After an overnight incubation, cells were treated with varying concentrations of TC-E 5008 or other mutant IDH1 inhibitors for 72 hours. Viability was measured using Cell Titer-Glo Luminescent Cell Viability Assay (Promega) in 96-well, flat, clear-bottom, opaque-wall micro plates according to manufacturer's protocol. IC50 was less than […] in ER+ breast cancer cell lines and greater than […] in ER− breast cancer cell lines, as shown in the Figures.
# (§2) A compound having a structure in accordance with Formula II (sometimes referred to herein as “TC-E 5008”) was selected for validation with an integrated confidence score of 1362.6. Three commonly used ER-positive breast cancer cell lines MCF-7, ZR-75 and T-47D were used for in vitro validation.
# [2] = test system: ER− breast cancer cell lines (triple negative breast cancer cell line); test: Cell Titer-Glo dose dependent viability assay, ER- breast cancer cell lines; assay type: cell-based
# Method: as §1, §2
# [3] = test system: ER-positive breast tumors samples; test: Patient-derived explant (PDE) ex vivo culture of primary breast tumors, Ki-67 staining; assay type: cell-based, human
# Method: Excised tissue samples were processed and cultured ex vivo. De-identified tumors were obtained from the University of Texas Southwest Tissue Repository after institutional review board approval. Briefly, tumor samples were incubated on gelatin sponges for 24 hours in culture medium containing 10% fetal bovine serum (hereafter “FBS”), followed by treatment with either vehicle, 10 μM TC-E 5008 for 72 hours. Representative tissues were fixed in 10% formalin at 4° C. overnight and subsequently processed into paraffin blocks. The sections were then processed for immunohistochemical analysis.
# In order to further validate TC-E 5008, an ex vivo culture model of primary breast tumors was used—which allows for the validation of drugs on breast tumors in their native tissue architecture. Specifically, surgically resected breast tissues were sliced into small pieces and grown ex vivo for short term on a gelatin sponge in the absence or presence of desired compound (see FIG. 4). In order to test TC-E 5008 in a variety of ER-positive tumors, estrogen receptor positivity was the only inclusion criteria used for the breast tumor samples.
# [4] = ER-positive tumor explants, 10 μM, 72 hours
# [5] = ER-positive tumor explants, 10 μM, 72 hours, versus untreated controls
smiles,measurement,setting,value
Cc1cc(Cc2ccccc2)n(O)c(=O)c1 [TC-E 5008],IC50,"[1]; ER+ breast cancer cell lines, 72 hours, Cell Titer-Glo",< 2 µM
same,anti-proliferative activity / proliferation,"[1]; ER-positive lines MCF-7, ZR-75 and T-47D, FIG. 1, 8, 9",anti-proliferative activity; also recorded: blocked proliferation of all three ER-positive breast cancer cell lines
same,IC50,"[2]; ER− breast cancer cell lines, 72 hours, Cell Titer-Glo",> 10 µM
same,activity on proliferation,"[2]; triple negative breast cancer cell line, FIG. 2",showed less activity
same,patients showing a reduction in Ki-67 staining (Partial responders),[3]; [4],3/10
same,patients showing a significant reduction (Complete responders),[3]; [4],4/10
same,patients with decreased proliferation (Ki-67 staining),[3]; [4],7/10
same,"reduction in Ki-67 staining, Complete responders",[3]; [5],40-95%
same,"reduction in Ki-67 staining, Partial responders",[3]; [5],0-25%
same,tumor tissues showing an increase in proliferation (Non-responders),"[3]; compared to untreated controls, FIG. 7",Three
same,response rate,[3]; limited cohort of 10 ER-positive tumors,40%
same,proliferative indices,"[3]; primary tumor explants cultured ex vivo, 10 μM, 72 hour",significant decrease in proliferative indices
same,morphological changes in the patient tissues,[3]; treated tissues compared to controls,did not observe morphological changes
